Measured values: ChEMBL document CHEMBL1201862, “PubChem BioAssay data set” (2004)
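Each compound was tested at five concentrations against cells in 96-well plates for 48 hours. GI50: concentration for 50% inhibition of growth.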 The source made the active and inactive calls. Rule as the data show it: active = GI50 up to about 1.1 µM and inactive = higher.

How the values were obtained:
Experiment in all cases: DTP human tumour cell line panel, 48 h
[1] = system: SK-OV-3
[2] = system: HCT-15
[3] = system: PC-3
[4] = system: UACC-257
[5] = system: HCC 2998
[6] = system: CAKI-1
[7] = system: IGROV-1
[8] = system: HT-29
[9] = system: A498
[10] = system: OVCAR-8
[11] = system: HOP-62
[12] = system: SN12C
[13] = system: EKVX
[14] = system: ACHN
[15] = system: Hs-578T
[16] = system: SK-MEL-2
[17] = system: T47D
[18] = system: SF-539
[19] = system: MOLT-4

Row | SMILES | GI50 [1] | GI50 [2] [µM] | GI50 [3] | GI50 [4] | GI50 [5] | GI50 [6] | GI50 [7] | GI50 [8] | GI50 [9] | GI50 [10] | GI50 [11] | GI50 [12] | GI50 [13] | GI50 [14] | GI50 [15] | GI50 [16] | GI50 [17] | GI50 [18] | GI50 [19]
1 | Cc1nc2ccccc2nc1N1CCCC1 | > 100 µM (inactive) | > 100 | > 100 µM (inactive) | > 100 µM (inactive) | > 100 µM (inactive) | > 100 µM (inactive) | > 100 µM (inactive) | > 100 µM (inactive) | > 100 µM (inactive) | > 100 µM (inactive) | > 100 µM (inactive) | > 100 µM (inactive) | 34.2 µM (inactive) | > 100 µM (inactive) | > 100 µM (inactive) | > 100 µM (inactive) | > 100 µM (inactive) |  | 
2 | COC(=O)CCn1cnc2c(SC)ncnc21 | > 100 µM (inactive) |  | > 100 µM (inactive) | > 100 µM (inactive) |  | > 100 µM (inactive) | > 100 µM (inactive) | > 100 µM (inactive) | > 100 µM (inactive) | > 100 µM (inactive) | > 100 µM (inactive) | > 100 µM (inactive) | > 100 µM (inactive) | > 100 µM (inactive) | > 100 µM (inactive) |  | > 100 µM (inactive) | > 100 µM (inactive) | > 100 µM (inactive)
3 | O=C(O)CNC(=O)C1NC(C(F)(F)F)(C(F)(F)F)OC1(C(F)(F)F)C(F)(F)F (configuration not stated) | > 100 µM (inactive) | > 100 | > 100 µM (inactive) | > 100 µM (inactive) |  | > 100 µM (inactive) | > 100 µM (inactive) | > 100 µM (inactive) | > 100 µM (inactive) | > 100 µM (inactive) | > 100 µM (inactive) | > 100 µM (inactive) | > 100 µM (inactive) | > 100 µM (inactive) | > 100 µM (inactive) | > 100 µM (inactive) | > 100 µM (inactive) | > 100 µM (inactive) | > 100 µM (inactive)
4 | COc1ccccc1N1CCN(S(=O)(=O)c2ccc(Cl)cc2)C1=N | > 100 µM (inactive) | 62.4 | 56.8 µM (inactive) | 41.6 µM (inactive) |  | > 100 µM (inactive) |  |  | > 100 µM (inactive) | 63.2 µM (inactive) | > 100 µM (inactive) | > 100 µM (inactive) | 26.9 µM (inactive) | 48.9 µM (inactive) | 78 µM (inactive) | 57.4 µM (inactive) | 68.7 µM (inactive) | 81.3 µM (inactive) | 43 µM (inactive)
5 | COC(=O)N[C@@H]1C[C@H]2CC[C@]1(O[Si](C(C)C)(C(C)C)C(C)C)C(=O)C2 | 21.3 µM (inactive) | 17.8 | 12.9 µM (inactive) | 11.8 µM (inactive) |  | 23.9 µM (inactive) | 13.6 µM (inactive) | 19.1 µM (inactive) | 21.4 µM (inactive) | 23.1 µM (inactive) | 21.4 µM (inactive) | 33.5 µM (inactive) | 15.4 µM (inactive) | 18.4 µM (inactive) | 10.3 µM (inactive) | 17.4 µM (inactive) | 19 µM (inactive) |  | 24.3 µM (inactive)
6 | N=C(N)NC(=N)Nc1c(F)c(F)c(F)c(F)c1F | > 100 µM (inactive) | > 100 | 97.9 µM (inactive) | 23.6 µM (inactive) |  | > 100 µM (inactive) | > 100 µM (inactive) | 96.8 µM (inactive) | > 100 µM (inactive) | > 100 µM (inactive) | > 100 µM (inactive) | > 100 µM (inactive) | 44.1 µM (inactive) | > 100 µM (inactive) | 95.3 µM (inactive) | > 100 µM (inactive) | 61.8 µM (inactive) | > 100 µM (inactive) | 
7 | O=C1C(=Cc2ccccc2[N+](=O)[O-])N=C(c2ccccc2)N1n1c(-c2ccccc2)nc2ccccc2c1=O | 40.7 µM (inactive) | 24.5 | 27.3 µM (inactive) | 24.8 µM (inactive) | 35.8 µM (inactive) | 39.1 µM (inactive) | 32.2 µM (inactive) | 32.1 µM (inactive) |  | 24.7 µM (inactive) | 28.6 µM (inactive) | 23 µM (inactive) | 33.4 µM (inactive) | 30.8 µM (inactive) | 20.6 µM (inactive) | 29.4 µM (inactive) | 21 µM (inactive) | 25.8 µM (inactive) | 27.8 µM (inactive)
8 | CC1(C)CC[C@]2(C(=O)O)CC[C@]3(C)C(=CC[C@@H]4[C@@]5(C)CC[C@H](OC6OC(C(=O)O)C(O)C(O)C6O)C(C)(C)[C@@H]5CC[C@]43C)[C@@H]2C1 (some centres not stated) | 19.5 µM (inactive) | 16.9 | 18.2 µM (inactive) | 16.4 µM (inactive) | 18.8 µM (inactive) | 18.7 µM (inactive) | 20 µM (inactive) | 15.1 µM (inactive) | 19.1 µM (inactive) | 20.8 µM (inactive) | 18.8 µM (inactive) | 16.8 µM (inactive) | 24.5 µM (inactive) | 16.1 µM (inactive) | 21.5 µM (inactive) | 15.4 µM (inactive) | 18.4 µM (inactive) |  | 19.8 µM (inactive)
